In one series the test system is IMR-5-75. Description: Cell viability assay, brain carcinoma cell line IMR-5-75. It is filed as cell-based. As to conditions: IMR-5-75 brain carcinoma cell line. The protocol: (§1) Antitumor activity of the compounds and doxorubicin as a positive control was assessed by using the CellTiter-Blue Cell Viability Assay (Promega, #G8082) or CellTiter-Glow® Luminescent Cell Viability assay (Promega # G7572) according to the manufacturer's instructions. The compounds were tested at 5 or 6 concentrations in half-log increments (highest concentration 30 μM-100 μM) in duplicate or triplicate well conditions.
(§2) Tumor cells were grown at 37° C. in a humidified atmosphere with 5% CO2 in RPMI 1640 or DMEM medium, supplemented with 10% (v/v) fetal calf serum and 50 μg/ml gentamicin for up to 20 passages, and were passaged once or twice weekly. Cells were harvested using TrypLE or PBS buffer containing 1 mM EDTA, and the percentage of viable cells is determined using a CASY Model TT cell counter (OMNI Life Science). Cells were harvested from exponential phase cultures, counted and plated in 96 well flat-bottom microtiter plates at a cell density depending on the cell line's growth rate (4,000-20,000 cells/well depending on the cell line's growth rate, up to 60,000 for hematological cancer cell lines) in RPMI 1640 or DMEM medium supplemented with 10% (v/v) fetal calf serum and 50 μg/ml gentamicin (140 μl/well). […] Viability of cells was quantified by the CellTiter-Blue® cell viability assay (Promega G8081) or CellTiter-Glow® Luminescent Cell Viability assay (Promega # G7572). […]

For the next series, the system named is NCI-H1299. Description: Cell viability assay, non-small cell lung carcinoma cell line NCI-H1299. It is filed as cell-based. The following applies: Homo sapiens. The protocol:
as §1
(§3) Tumor cells were grown at 37° C. in a humidified atmosphere with 5% CO2 in RPMI 1640 or DMEM medium, supplemented with 10% (v/v) fetal calf serum and 50 μg/ml gentamicin for up to 20 passages, and were passaged once or twice weekly. Cells were harvested using TrypLE or PBS buffer containing 1 mM EDTA, and the percentage of viable cells is determined using a CASY Model TT cell counter (OMNI Life Science). Cells were harvested from exponential phase cultures, counted and plated in 96 well flat-bottom microtiter plates at a cell density depending on the cell line's growth rate (4,000-20,000 cells/well depending on the cell line's growth rate, up to 60,000 for hematological cancer cell lines) in RPMI 1640 or DMEM medium supplemented with 10% (v/v) fetal calf serum and 50 μg/ml gentamicin (140 μl/well). Cultures were incubated at 37° C. and 5% CO2 in a humidified atmosphere. After 24 h, 10 μl of test compounds or control medium are added, and left on the cells for another 72 h. Compounds were serially diluted in DMSO, transferred in cell culture medium, and added to the assay plates. The DMSO concentration was kept constant at <0.3% v/v across the assay plate. Viability of cells was quantified by the CellTiter-Blue® cell viability assay (Promega G8081) or CellTiter-Glow® Luminescent Cell Viability assay (Promega # G7572). Fluorescence (FU) was measured by using the EnSpire® multimode plate reader (Perkin Elmer) (excitation λ=570 nm, emission λ=600 nm) or luminescent detection of ATP in viable cells was used as parameter for proliferation. Luminescence was measured with the microplate luminometer (Promega or Perkin Elmer).
(§4) Sigmoidal concentration-response curves were fitted to the data points (test-versus-control, T/C values) obtained for each tumor model using 4 parameter non-linear curve fit (Charles River DRS Datawarehouse Software) or with GraphPad prism 5.02 software. IC50 values are reported as absolute IC50 values, being the concentration of test compound at the intersection of the concentration-response curves with T/C=50%

The test system of a further series is SK-OV-3. Put plainly: Cell viability assay, ovarian carcinoma cell line SK-OV-3. In kind it is cell-based. As for the experimental part: as §1, §2
In a further series the test system is MeWo. Put plainly: Cell viability assay, melanoma cell line MeWo. It is filed as cell-based. As to conditions: Homo sapiens. As for the experimental part: as §1
as §3, with “Elmer). […]” for “Elmer).”

The subject of the next series is A375. Put plainly: Cell viability assay, melanoma cell line A375. It is filed as cell-based. The following applies: Homo sapiens, A-375. The protocol: as §1, §3, §4
In another series the test system is lung carcinoma cell. Description: Cell viability assay, lung carcinoma cell lines (summary). It is filed as cell-based. The following applies: summary of Tables 7A-E; read-out: IC50s, lung carcinoma cell growth. As for the experimental part:
as §1, §3, §4

The next series has as its system melanoma cell lines. Description: Cell viability assay, melanoma cell lines (summary). It is filed as cell-based. The following applies: summary of Tables 14A and 14B; read-out: IC50s, melanoma cell lines growth. The protocol: as §1, §3, §4
Series [1] has as its system H69AR. Put plainly: Cell viability assay, resistant small cell lung carcinoma cell line H69AR. It is filed as cell-based. As to conditions: H69AR multiple drug resistant small cell lung carcinoma cell line. The protocol: as §1, §3, §4
The multiple drug resistant cell line H69AR obtained from ATCC, was established from NCI-H69 cells that were grown in the presence of increasing concentrations of adriamycin (doxorubicin). The H69AR cell line is approximately 50-fold resistant to adriamycin as compared to the parental NCI-H69 cell line. SND141, SND142, SND143, SND146, SND147 and SND148 inhibited the resistant cell line H69AR with IC50s below 5 μM, as presented in Table 8.

The next series deals with Panc-1. Description: Cell viability assay, pancreatic carcinoma cell line Panc-1. The following applies: Homo sapiens; Panc-1 pancreatic carcinoma cell line. In kind it is cell-based. The protocol: as §1, §3, §4
A further series concerns MIA-Pa-Ca-2. Description: Cell viability assay, pancreatic carcinoma cell line MIA-Pa-Ca-2. In kind it is cell-based. As to conditions: Homo sapiens, MIA PaCa-2; MIA-Pa-Ca-2 pancreatic carcinoma cell line. The protocol: as §1, §3, §4
A further series relates to CH-17-0098. Description: PDX cytotoxicity assay, bile duct PDX CH-17-0098. It is filed as cell-based. As for the experimental part:
(§5) PDX-derived cell cultures were obtained from tumors explanted from mice and isolated by mechanical and enzymatic dissociation. […] Cells were harvested and seeded in 96-wells plates at a density of 1.25 to 5×10^3 cells/well for cytotoxicity assays. Cells were incubated 48 h at 37° C. prior to addition of test molecules and vehicle (DMSO, 0.1%) at desired final concentrations. Cell viability was assessed before drugs' addition (T0) and 5 days after test molecules addition by measuring ATP cell content using CellTiter-Glo® Luminescent Cell Viability Assay (Promega) according to the manufacturer's instructions. Luciferase activity was measured on a luminometer (PerkinElmer® EnVision™). Each concentration of compounds was tested in triplicate.
(§6) Viability was calculated as a percentage of ATP value compared to vehicle treated controls.
(§7) For PDX primary cell cultures, the tumour tissue was washed with PBS containing antibiotic-antimycotic and non-tumour tissue and necrotic tumour tissues were separated. The tumour tissue was transferred to a new dish and cut into 1˜2 mm^3 fragments, resuspended in RPMI-1640 medium and centrifuged at 1,200 rpm for 6 min at room temperature. The pelleted material was resuspended with 15 mL of Tumour Cell Digestion Solution and incubated at 37° C. for 1 hour with agitation. […]

Series [2] in a line: In vivo maximum tolerated dose in NOG mice. As to conditions: for tolerability at the highest dose administered: 8-10 mg/kg i.p., daily or every other day over 8 days; for MTD at 8 days: mouse, in vivo, ip, repeated i.p. administration, MTD not reached, read-out: maximum tolerated dose (MTD), estimated. The protocol: In order to evaluate the general toxicity of selected SND compounds in an animal model, a maximum tolerated dose (MTD) in NOG mice has been undertaken. Three mice per group were treated daily or every other day over 8 days at various doses between 5 mg/kg and 10 mg/kg. Administration of the compounds was i.p. A stock solution of the compounds (40 mg/ml in DMSO) was prepared and frozen at −20° C. in aliquots for each treatment. […] Body weights were measured before each treatment. Mice were further observed for 1 week after the last treatment.

Series [3] has as its system pancreatic carcinoma cell. Description: Cell viability assay, pancreatic carcinoma cell lines (summary). It is filed as cell-based. As to conditions: summary of Table 12; read-out: IC50s, pancreatic carcinoma cell growth. The protocol:
as §1, §3, §4

In the next series the test system is SC6. Description: PDX cytotoxicity assay, small cell lung carcinoma PDX SC6. In kind it is cell-based. The protocol: as §5, §6, §7
In another series the test system is CALU-6. Put plainly: Cell viability assay, non-small cell lung carcinoma cell line CALU-6. In kind it is cell-based. The following applies: Homo sapiens; CALU-6 non-small cell lung carcinoma cell line. As for the experimental part:
as §1, §3, §4

The next series has as its system RXF 486. Put plainly: Cell viability assay, MDR renal carcinoma patient derived line RXF 486. It is filed as cell-based. As to conditions: RXF 486 MDR renal carcinoma patient derived line. As for the experimental part: as §1, §2
In series [4] the test system is H69AR. As to conditions: H69AR from ATCC, vs parental NCI-H69; cited from earlier work.

Consider 6 molecules from patent US20240132461A1, “FLAVONE DEAZA SPERMIDINE ANALOGUES AND THEIR USE TREATING CANCER” (FLORATEK PHARMA S.A., priority 2021, published 2024).

By MTD is commonly meant the highest dose tested that stayed within the study's limit of toxicity.

Molecules are shown by their SMILES. Counter-ions that a name gives are not always drawn.

As for `COc1c(O)ccc2c(=O)cc(-c3ccc(CCCCNCCNCCCN)cc3)oc12` [SND211], the IC50 is 1.5 µM in the series with IMR-5-75; 1.8 µM in the series with NCI-H1299; under 20 µM in the series on SK-OV-3 (Homo sapiens, SK-OV-3, SK-OV-3 ovarian carcinoma cell line); 10.6 µM in the series with SK-OV-3 (SK-OV-3 ovarian carcinoma cell line); 5.3 µM with MeWo; 1.8 µM in the series with A375. Besides, the IC50 in the series with lung carcinoma cell was under 20 µM; with melanoma cell lines it was under 10 µM.

As for `COc1c(O)ccc2c(=O)cc(-c3ccc(CCCCN4CCCCC4)cc3)oc12` [SND148, 7-hydroxy-8-methoxy-2-(4-(4-(piperidin-1-yl)butyl)phenyl)-4H-chromen-4-one], the IC50 was 2.5 µM in the series on H69AR [1]; under 5 µM with H69AR [1] (Homo sapiens, H69AR); 2.3 µM with Panc-1; 2.21 µM in the series on MIA-Pa-Ca-2; 13.9 µM in the series with CH-17-0098; under 10 µM in series [3]. In addition, the “tolerability at the highest dose administered” value in [2] is “well tolerated”. Further, the MTD at 8 days in [2] was over 10 mg/kg.

Consider `CN(CCCc1ccc(-c2cc(=O)c3ccc(O)c(O)c3o2)cc1)CCN1CCCCC1` [SND171, 7,8-Dihydroxy-2-(4-(3-(methyl(2-(piperidin-1-yl)ethyl)amino)propyl)phenyl)-4H-chromen-4-one dihydrochloride], for which the IC50 with SC6 was 15 µM.

In the case of `COc1c(O)ccc2c(=O)cc(-c3ccc(CCCCN(C)CCN4CCCCC4)cc3)oc12` [SND146, 7-Hydroxy-8-methoxy-2-(4-(4-(methyl(2-(piperidin-1-yl)ethyl)amino)butyl)phenyl)-4H-chromen-4-one], the IC50 with CALU-6 is 17.2 µM; in the series on Panc-1 it was 1.2 µM; with MIA-Pa-Ca-2, 0.87 µM; with RXF 486, 0.4 µM; in the series with lung carcinoma cell it was under 20 µM; in series [3], under 10 µM.

Turning to `COc1cccc2c1C(=O)c1c(O)c3c(c(O)c1C2=O)C[C@@](O)(C(=O)CO)C[C@@H]3O[C@H]1C[C@H](N)[C@H](O)[C@H](C)O1` [adriamycin], the “resistance of H69AR compared to the parental NCI-H69 cell line” value in the series on H69AR [4] is reported as “approximately 50 fold”.

In the case of `COc1c(O)ccc2c(=O)cc(-c3ccc(CCCCN4CCCC4)cc3)oc12` [SND143, 7-hydroxy-8-methoxy-2-(4-(4-(pyrrolidin-1-yl)butyl)phenyl)-4H-chromen-4-one], the IC50 with H69AR [1] is 3.3 µM; in the series with H69AR [1] (Homo sapiens, H69AR), under 5 µM; in the series on Panc-1, 6.09 µM; in the series on MIA-Pa-Ca-2, 4.96 µM; with RXF 486, 1.3 µM; in [3] it was under 10 µM. Further, in [2], the “tolerability at the highest dose administered” value was “well tolerated”. The MTD at 8 days in [2] is over 10 mg/kg.
